Measurements: ChEMBL document CHEMBL1201862, “PubChem BioAssay data set” (2004)
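Where inhibition never reached the appropriate level, the endpoint shown equals the highest concentration tested. Otherwise, values were interpolated linearly from a five-concentration, 48-hour dose response in 96-well plates. At the GI50, growth is halved.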 Active and inactive are the calls of the source. No stated cut-off is given here; in the data, active = GI50 up to about 1.1 µM and inactive = higher.

How the values were obtained:
Experiment in all cases: NCI anticancer screen, dose series, 48 h
SNB-75 = test system: SNB-75
Malme-3M = test system: Malme-3M
MCF7 = test system: MCF7
SW-620 = test system: SW-620
RXF 393 = test system: RXF 393
MDA-MB-231 = test system: MDA-MB-231
HCT-15 = test system: HCT-15
CAKI-1 = test system: CAKI-1
SK-MEL-5 = test system: SK-MEL-5
K562 = test system: K562
TK-10 = test system: TK-10
LOX IMVI = test system: LOX IMVI
IGROV-1 = test system: IGROV-1
SK-MEL-2 = test system: SK-MEL-2
UACC-257 = test system: UACC-257
OVCAR-4 = test system: OVCAR-4
U-251 = test system: U-251
SK-OV-3 = test system: SK-OV-3
RPMI-8226 = test system: RPMI-8226
SF-539 = test system: SF-539

Compound | GI50 (SNB-75) | GI50 (Malme-3M) | GI50 (MCF7) | GI50 (SW-620) | GI50 (RXF 393) | GI50 (MDA-MB-231) | GI50 (HCT-15) [µM] | GI50 (CAKI-1) | GI50 (SK-MEL-5) | GI50 (K562) | GI50 (TK-10) | GI50 (LOX IMVI) | GI50 (IGROV-1) | GI50 (SK-MEL-2) | GI50 (UACC-257) | GI50 (OVCAR-4) | GI50 (U-251) | GI50 (SK-OV-3) | GI50 (RPMI-8226) | GI50 (SF-539)
O=c1ccn(C/C=C/c2ccccc2)c(=S)n1C/C=C/c1ccccc1 | > 100 µM (inactive) | 89.1 µM (inactive) | 18.3 µM (inactive) | > 100 µM (inactive) | 9.75 µM (inactive) | > 100 µM (inactive) | > 100 | > 100 µM (inactive) | 35.2 µM (inactive) | 15.8 µM (inactive) | > 100 µM (inactive) | 28.6 µM (inactive) | > 100 µM (inactive) | > 100 µM (inactive) | 32.8 µM (inactive) | 90.4 µM (inactive) | 77.1 µM (inactive) | > 100 µM (inactive) | – | –
O=C1c2ccsc2-c2cccc3cccc1c23.O=C1c2sccc2-c2cccc3cccc1c23 | 3.27 µM (inactive) | 0.353 µM (active) | 8.41 µM (inactive) | 3.27 µM (inactive) | 2.49 µM (inactive) | 4.35 µM (inactive) | 3.18 | 2.26 µM (inactive) | – | 10 µM (inactive) | 2.55 µM (inactive) | 3.72 µM (inactive) | 6.59 µM (inactive) | 14.8 µM (inactive) | 9.2 µM (inactive) | 11 µM (inactive) | 4.62 µM (inactive) | 18.5 µM (inactive) | 0.0359 µM (active) | 6.22 µM (inactive)
COC1(OC)CC(CO)(CNc2nc(N)nc(Cl)c2C=O)C1 | 90.4 µM (inactive) | 81.7 µM (inactive) | 57.7 µM (inactive) | 53.2 µM (inactive) | 34.1 µM (inactive) | 20.8 µM (inactive) | 26 | 42.6 µM (inactive) | > 100 µM (inactive) | 5.74 µM (inactive) | > 100 µM (inactive) | 18.5 µM (inactive) | 20.7 µM (inactive) | – | 27 µM (inactive) | 25.2 µM (inactive) | 34.6 µM (inactive) | – | > 100 µM (inactive) | > 100 µM (inactive)
Nc1ccc(S(=O)(=O)Nc2nc3ccccc3nc2N2CCCCC2)cc1 | 24.3 µM (inactive) | 71.9 µM (inactive) | 84.3 µM (inactive) | 59 µM (inactive) | 55.2 µM (inactive) | > 100 µM (inactive) | 78.7 | > 100 µM (inactive) | 91 µM (inactive) | > 100 µM (inactive) | 37.6 µM (inactive) | > 100 µM (inactive) | 80.9 µM (inactive) | 88.1 µM (inactive) | > 100 µM (inactive) | 24.2 µM (inactive) | 68.2 µM (inactive) | > 100 µM (inactive) | 58.9 µM (inactive) | > 100 µM (inactive)
CC(=O)OC[C@H]1On2nnnc2[C@H](OC(C)=O)[C@@H](OC(C)=O)[C@@H]1OC(C)=O | > 100 µM (inactive) | > 100 µM (inactive) | > 100 µM (inactive) | > 100 µM (inactive) | > 100 µM (inactive) | > 100 µM (inactive) | > 100 | > 100 µM (inactive) | > 100 µM (inactive) | > 100 µM (inactive) | 31 µM (inactive) | > 100 µM (inactive) | > 100 µM (inactive) | > 100 µM (inactive) | > 100 µM (inactive) | > 100 µM (inactive) | > 100 µM (inactive) | > 100 µM (inactive) | > 100 µM (inactive) | > 100 µM (inactive)
COc1ccc2c(-c3csc(-c4c[nH]c5ccccc45)n3)c[nH]c2c1 | 22 µM (inactive) | 4.95 µM (inactive) | 4.36 µM (inactive) | 6.92 µM (inactive) | 5.01 µM (inactive) | 5.2 µM (inactive) | 1.45 | 12.1 µM (inactive) | 7.18 µM (inactive) | 3.44 µM (inactive) | 9.2 µM (inactive) | 2.75 µM (inactive) | 5.58 µM (inactive) | 14.5 µM (inactive) | 12.7 µM (inactive) | 11 µM (inactive) | 5.19 µM (inactive) | 17.7 µM (inactive) | 3.77 µM (inactive) | 5.73 µM (inactive)
CC(C)C1=C(Cc2ccccc2)C(=O)O/C1=C\c1cc(Cl)c(O)c(Cl)c1 | 20.1 µM (inactive) | 16.7 µM (inactive) | 27.9 µM (inactive) | 23.1 µM (inactive) | 16.4 µM (inactive) | 16.9 µM (inactive) | 18.2 | 15.8 µM (inactive) | 18.7 µM (inactive) | 17.4 µM (inactive) | 26 µM (inactive) | 17.4 µM (inactive) | 19.4 µM (inactive) | – | 16.9 µM (inactive) | 15.6 µM (inactive) | 17.7 µM (inactive) | 19.2 µM (inactive) | 17.3 µM (inactive) | 21.5 µM (inactive)
N#Cc1nc(CCN2C(=O)c3ccccc3C2=O)oc1N | < 0.01 µM (active) | > 100 µM (inactive) | > 100 µM (inactive) | > 100 µM (inactive) | > 100 µM (inactive) | > 100 µM (inactive) | > 100 | > 100 µM (inactive) | > 100 µM (inactive) | > 100 µM (inactive) | > 100 µM (inactive) | > 100 µM (inactive) | > 100 µM (inactive) | > 100 µM (inactive) | > 100 µM (inactive) | > 100 µM (inactive) | > 100 µM (inactive) | > 100 µM (inactive) | > 100 µM (inactive) | > 100 µM (inactive)
CN(C)CCNC(=O)c1cccc2c(NCCN(C)C)c3ccccc3nc12 | 5.06 µM (inactive) | 3.85 µM (inactive) | 2.36 µM (inactive) | 2.33 µM (inactive) | 3.6 µM (inactive) | 2 µM (inactive) | 3.63 | 2.69 µM (inactive) | 3.48 µM (inactive) | 1.73 µM (inactive) | 3.24 µM (inactive) | 1.55 µM (inactive) | 2.68 µM (inactive) | 5.28 µM (inactive) | 5.14 µM (inactive) | 2.49 µM (inactive) | 2.69 µM (inactive) | 7.4 µM (inactive) | 2.41 µM (inactive) | 3.05 µM (inactive)
C=C(Cl)/C(=C/Cl)CCC(Br)C(C)(C)Cl.C=C(Cl)/C(=C\Cl)CCC(Br)C(C)(C)Cl (stereo not drawn) | > 10 µM (inactive) | > 10 µM (inactive) | > 10 µM (inactive) | > 10 µM (inactive) | > 10 µM (inactive) | > 10 µM (inactive) | > 10 | > 10 µM (inactive) | > 10 µM (inactive) | 5.43 µM (inactive) | > 10 µM (inactive) | > 10 µM (inactive) | > 10 µM (inactive) | > 10 µM (inactive) | > 10 µM (inactive) | > 10 µM (inactive) | > 10 µM (inactive) | > 10 µM (inactive) | > 10 µM (inactive) | > 10 µM (inactive)
O=C(CCN1CCCC1)c1ccc(Oc2ccc(F)cc2)cc1 | 47.8 µM (inactive) | 27.8 µM (inactive) | 15.6 µM (inactive) | 78.7 µM (inactive) | 22.3 µM (inactive) | > 100 µM (inactive) | 41.3 | 16.3 µM (inactive) | 44.8 µM (inactive) | 42.4 µM (inactive) | 30.1 µM (inactive) | 30.5 µM (inactive) | 33 µM (inactive) | > 100 µM (inactive) | 43.1 µM (inactive) | > 100 µM (inactive) | > 100 µM (inactive) | > 100 µM (inactive) | – | 29.9 µM (inactive)
CN(C)CCC(C#N)(c1ccccc1)c1ccccc1 | 52.6 µM (inactive) | 35.1 µM (inactive) | 94.4 µM (inactive) | > 100 µM (inactive) | 40 µM (inactive) | 47.5 µM (inactive) | > 100 | > 100 µM (inactive) | 24.7 µM (inactive) | 4.06 µM (inactive) | 60.1 µM (inactive) | – | 55.1 µM (inactive) | > 100 µM (inactive) | 24.4 µM (inactive) | > 100 µM (inactive) | 88.9 µM (inactive) | > 100 µM (inactive) | 24.9 µM (inactive) | > 100 µM (inactive)
CC(=O)OC12c3ccccc3C(c3ccccc31)C1C(=O)N(Nc3ccccc3)C(=O)C12 (stereo not drawn) | 92.7 µM (inactive) | > 100 µM (inactive) | > 100 µM (inactive) | > 100 µM (inactive) | > 100 µM (inactive) | > 100 µM (inactive) | > 100 | > 100 µM (inactive) | > 100 µM (inactive) | > 100 µM (inactive) | > 100 µM (inactive) | > 100 µM (inactive) | > 100 µM (inactive) | – | > 100 µM (inactive) | > 100 µM (inactive) | > 100 µM (inactive) | > 100 µM (inactive) | > 100 µM (inactive) | > 100 µM (inactive)
Cc1c(C)c2c(c(N)c1C#N)C(=O)N(CCc1ccccc1)C2=O | > 100 µM (inactive) | > 100 µM (inactive) | > 100 µM (inactive) | > 100 µM (inactive) | > 100 µM (inactive) | > 100 µM (inactive) | > 100 | > 100 µM (inactive) | > 100 µM (inactive) | > 100 µM (inactive) | > 100 µM (inactive) | > 100 µM (inactive) | > 100 µM (inactive) | > 100 µM (inactive) | > 100 µM (inactive) | > 100 µM (inactive) | > 100 µM (inactive) | – | > 100 µM (inactive) | > 100 µM (inactive)
CC(C)C1OC23CCCCC2C(C#N)(C#N)C1(C#N)C(=N)O3 (stereo not drawn) | 28.4 µM (inactive) | 16.8 µM (inactive) | 12.1 µM (inactive) | 13.7 µM (inactive) | 20.5 µM (inactive) | 19.6 µM (inactive) | 9.46 | 8.34 µM (inactive) | 16.8 µM (inactive) | 8.61 µM (inactive) | 19.9 µM (inactive) | 20.1 µM (inactive) | > 10 µM (inactive) | 26 µM (inactive) | 20.6 µM (inactive) | – | 17.4 µM (inactive) | > 100 µM (inactive) | – | 18 µM (inactive)
